Like-named read-outs stand apart in the source and are kept apart here.
Assays:
HSP90α = HSP90α (Homo sapiens (Human), UniProt P07900); assay: Fluorescence polarization (FP) HSP90-alpha target binding assay
Text: In the present invention, the method of fluorescence polarization (FP) was used to establish the screening platform for HSP90-alpha inhibitors. The principle based on is to calculate fluorescence polarization values in horizontal and vertical directions by detecting molecular weight changes before and after interaction of fluorescent labeled small molecules with other molecules, in use for correlation analysis. If binding equilibria between the fluorescent labeled small molecule and the macromolecule is established, it moves slowly when excited, and the fluorescence polarization values measured will increase. If the fluorescent labeled small molecule binding to the macromolecule is replaced with other ligands, its rotational or inversional speed in free state will become faster, the emitted light would be depolarized with respect to the exciting light plane, and thus the polarized light value measured will decrease, so as to calculate the polarization value of the sample (the unit of polarization value is mP).
The fluorescent labeled small molecule used in the present invention was VER-00051001 (synthesized by reference to the synthetic method described in JMC, 2008, 51, 196-218). The reaction was carried out in a 384-well black plate, using the reaction hydrophobic protein HFB buffer: 100 mM Tris.Cl pH 7.4, 20 mM KCl, 6 mM MgCl2, 5 μg/mL BSA, 25 nM full-length Hsp90U, 10 nM VER-51001. The volume of the reaction system was […], containing 5 nM GM-BODIPY (geldanamycin), 30 nM HSP90 and the test small molecular compound or DMSO (dimethyl sulfoxide), wherein the DMSO content was 2% o. Additional two group wells were established, wherein the wells only added with HFB buffer were used as blank controls, and the wells further added with 5 nM GM-BODIPY were used as negative controls. The reaction was carried out at 4° C. for 12-16 hours. The mP value was measured by Biotek microplate reader at 485 nm of excitation wavelength and 535 nm of emission wavelength. The inhibition rate was calculated using the following equation: (Compound-free mP−Compound mP)/(Compound-free mP−negative control mP)×100%

[1] = system: human lung cancer cell line A549; assay: Tumor cell growth inhibition, SRB staining, A549; type: cell-based; conditions: A549, 72 h
Method: The growth inhibition assay of tumor cells was detected by sulforhodamine B (SRB) staining method. The specific steps were as follows: inoculating human colon cancer cell line HCT116 and human lung cancer cell line A549 (purchased from American Type Culture Collection, ATCC) at the logarithmic growth phase into a 96-well micro culture plate at an appropriate concentration of 4000 cells/well, 100 μL for each well; after culturing overnight, adding with the compound at different concentrations (100, 10, 1, 0.1, 0.01 μM) to react for 72 h, wherein triplicate wells were set up for each concentration, and solvent control wells with the corresponding concentration and zero wells without cells were also set up. After the completion of the reaction, the culture medium was removed from the adherent cells, the later was added with 10% (w/v) trichloroacetic acid (100 μL/well) at 4° C. to fix for 1 h, and then washed five times with distilled water. After drying at room temperature, 100 μL of SRB solution (4 mg/mL, dissolved in 1% glacial acetic acid) was added into each well, followed by incubation and staining for 15 min at room temperature. The uncombined SRB was removed by washing five times with 1% glacial acetic acid. After drying at room temperature, 100 μL of 10 mM Tris solution was added into each well, and the optical density (OD) at 515 nm was measured by a […] microplate reader. The inhibition rate of the drug to tumor cell growth was calculated according to the following equation: Inhibition rate (%)=(OD of control well-OD of drug well)/OD of control well×100%. The experiment was repeated twice.

[2] = fluorescence polarization, read-out: Target binding ability HSP90α FP IC50

Row | SMILES | IC50 (HSP90α) [nM] | EC50 [1] [nM] | IC50 (HSP90α; [2]) [nM]
1 | CCNC(=O)c1noc(-c2cc(C(C)C)c(O)cc2O)c1-c1ccc2c(c1)C1CCC2N1 (centres unmarked) [Example 4, 5-(2,4-dihydroxyl-5-isopropylphenyl)-N-ethyl-4-(1,2,3,4-tetrahydro-1,4-epiminonaphth-6-yl)isoxazole-3-carboxamide] | 20 to 100 | 20 to 100 | –
2 | CCNC(=O)c1noc(-c2cc(C(C)C)c(O)cc2O)c1-c1ccc2c(c1)C1CCC2N1C (centres unmarked) [Example 5, 5-(2,4-dihydroxyl-5-isopropylphenyl)-N-ethyl-4-(9-methyl-1,2,3,4-tetrahydro-1,4-epiminonaphth-6-yl)isoxazole-3-carboxamide] | 20 to 100 | < 20 | –
3 | CCNC(=O)c1noc(-c2cc(C(C)C)c(O)cc2O)c1-c1ccc2c(c1)C1CCC2N1CC (centres unmarked) [Example 6, 5-(2,4-dihydroxyl-5-isopropylphenyl)-N-ethyl-4-(9-ethyl-1,2,3,4-tetrahydro-1,4-epiminonaphth-6-yl)isoxazole-3-carboxamide] | 20 to 100 | < 20 | –
4 | CCNC(=O)c1noc(-c2cc(C(C)C)c(O)cc2O)c1-c1ccc2c(c1)C1CCC2N1C(C)C (centres unmarked) [Example 7, 5-(2,4-dihydroxyl-5-isopropylphenyl)-N-ethyl-4-(9-isopropyl-1,2,3,4-tetrahydro-1,4-epiminonaphth-6-yl)isoxazole-3-carboxamide] | 20 to 100 | < 20 | –
5 | CCNC(=O)c1noc(-c2cc(C(C)C)c(O)cc2O)c1-c1ccc2c(c1)C1CCC2N1CC(C)C (centres unmarked) [Example 8, 5-(2,4-dihydroxyl-5-isopropylphenyl)-N-ethyl-4-(9-isobutyl-1,2,3,4-tetrahydro-1,4-epiminonaphth-6-yl)isoxazole-3-carboxamide] | 20 to 100 | < 20 | –
6 | CCNC(=O)c1noc(-c2cc(C(C)C)c(O)cc2O)c1-c1cc2c(s1)CCN(C)C2 [Example 9, 5-(2,4-dihydroxyl-5-isopropylphenyl)-N-ethyl-4-(5-methyl-4,5,6,7-tetrahydrothieno[3,2-c]pyridin-2-yl)isoxazole-3-carboxamide] | – | 20 to 100 | 20 to 100
7 | CCNC(=O)c1noc(-c2cc(C(C)C)c(O)cc2O)c1-c1nc2c(s1)CCN(C)C2 [Example 10, 5-(2,4-dihydroxyl-5-isopropyl-phenyl)-N-ethyl-4-(5-methyl-4,5,6,7-tetrahydrothiazolo[4,5-c]pyridin-2-yl)isoxazole-3-carboxamide] | – | 20 to 100 | 20 to 100
8 | CCNC(=O)c1noc(-c2cc(C(C)C)c(O)cc2O)c1-c1ccc2c(n1)CCN(C)C2 [Example 11, 5-(2,4-dihydroxyl-5-isopropylphenyl)-N-ethyl-4-(6-methyl-5,6,7,8-tetrahydro-1,6-naphthyridin-2-yl)isoxazole-3-carboxamide] | – | < 20 | 20 to 100
9 | CCNC(=O)c1onc(-c2cc(C(C)C)c(O)cc2O)c1-c1ccc2c(c1)CCN(C)C2 [Example 12, 3-(2,4-dihydroxyl-5-isopropylphenyl)-N-ethyl-4-(2-methyl-1,2,3,4-tetrahydroisoquinolin-6-yl)isoxazole-5-carboxamide] | – | < 20 | < 20
10 | Cc1nnc(-c2noc(-c3cc(C(C)C)c(O)cc3O)c2-c2ccc3c(c2)CCN(C)C3)[nH]1 [Example 15, 4-isopropyl-6-[4-(2-methyl-1,2,3,4-tetrahydroisoquinolin-6-yl)-3-(5-methyl-4H-1,2,4-triazol-3-yl)isoxazol-5-yl]benzene-1,3-diol] | – | > 100 | 20 to 100
11 | CCc1cnc(-c2noc(-c3cc(C(C)C)c(O)cc3O)c2-c2ccc3c(c2)CCN(C)C3)[nH]1 [Example 16, 4-(3-(5-ethyl-1H-imidazol-2-yl)-4-(2-methyl-1,2,3,4-tetrahydroisoquinolin-6-yl)isoxazol-5-yl)-6-isopropylbenzene-1,3-diol] | – | < 20 | 20 to 100
12 | CCc1cnc(-c2noc(-c3cc(C(C)C)c(O)cc3O)c2-c2ccc3c(c2)CCN(CCO)C3)[nH]1 [Example 17, 4-(3-(5-ethyl-1H-imidazol-2-yl)-4-(2-(2-hydroxyethyl)-1,2,3,4-tetrahydroisoquinolin-6-yl)isoxazol-5-yl)-6-isopropylbenzene-1,3-diol] | – | 20 to 100 | 20 to 100
13 | CCNC(=O)c1noc(-c2cc(C(C)C)c(O)cc2O)c1-c1cc2c(s1)C(C)(C)NCC2 [Example 18, 5-(2,4-dihydroxyl-5-isopropylphenyl)-4-(7,7-dimethyl-4,5,6,7-tetrahydrothieno[2,3-c]pyridin-2-yl)-N-ethyl-isoxazole-3-carboxamide] | – | 20 to 100 | < 20
14 | CCNC(=O)c1noc(-c2cc(C(C)C)c(O)cc2O)c1-c1cnc2c(c1)CN(C)CC2 [Example 19, 5-(2,4-dihydroxyl-5-isopropylphenyl)-N-ethyl-4-(6-methyl-5,6,7,8-tetrahydro-1,6-naphthyridin-3-yl)isoxazole-3-carboxamide] | – | > 100 | 20 to 100
15 | CC(C)c1cc(-c2onc(C(O)C(F)(F)F)c2-c2ccc3c(c2)CCN(C)C3)c(O)cc1O (centres unmarked) [Example 20, 4-isopropyl-6-(4-(2-methyl-1,2,3,4-tetrahydroisoquinolin-6-yl)-3-(2,2,2-trifluoro-1-hydroxyethyl)isoxazol-5-yl)benzene-1,3-diol] | – | > 100 | 20 to 100
16 | CC(C)c1cc(-c2onc(C(=N)NC#N)c2-c2ccc3c(c2)CCN(C)C3)c(O)cc1O [Example 21, N-cyano-5-(2,4-dihydroxyl-5-isopropylphenyl)-4-(2-methyl-1,2,3,4-tetrahydroisoquinolin-6-yl)isoxazole-3-carboxamidine] | – | > 100 | < 20
17 | CCNC(=O)c1noc(-c2cc(C(C)C)c(O)cc2O)c1-c1cc2c(s1)CCN(C)CC2 [Example 22, 5-(2,4-dihydroxyl-5-isopropylphenyl)-N-ethyl-4-(6-methyl-5,6,7,8-tetrahydro-4H-thieno[2,3-d]azepin-2-yl) isoxazole-3-carboxamide] | – | 20 to 100 | < 20
18 | CCNC(=O)c1noc(-c2cc(C(C)C)c(O)cc2O)c1-c1cc2n(c1)CCN(C)C2 [Example 23, 5-(2,4-dihydroxyl-5-isopropylphenyl)-N-ethyl-4-(2-methyl-1,2,3,4-tetrahydropyrrolo[1,2-a]pyrazin-7-yl)isoxazole-3-carboxamide] | – | 20 to 100 | < 20
19 | CCNC(=O)c1noc(-c2cc(C(C)C)c(O)cc2O)c1-c1nc2c(n1C)CCN(CC(C)C)C2 [Example 24, 5-(2,4-dihydroxyl-5-isopropylphenyl)-N-ethyl-4-(5-isobutyl-1-methyl-4,5,6,7-tetrahydro-1H-imidazo[4,5-c]pyridin-2-yl)isoxazole-3-carboxamide] | – | 20 to 100 | 20 to 100
20 | CCNC(=O)c1noc(-c2cc(C(C)C)c(O)cc2O)c1-c1ccc2c(c1)CCN(C)CC2 [Example 25, 5-(2,4-dihydroxyl-5-isopropylphenyl)-N-ethyl-4-(3-methyl-2,3,4,5-tetrahydro-1H-benzo[d]azepin-7-yl)isoxazole-3-carboxamide] | – | 20 to 100 | < 20
21 | CCNC(=O)c1noc(-c2cc(C(C)C)c(O)cc2O)c1-c1ccc2c(c1)CCCN(C)C2 [Example 26, 5-(2,4-dihydroxyl-5-isopropylphenyl)-N-ethyl-4-(2-methyl-2,3,4,5-tetrahydro-1H-benzo[c]azepin-7-yl)isoxazole-3-carboxamide] | – | 20 to 100 | < 20
22 | CCNC(=O)c1onc(-c2cc(C(C)C)c(O)cc2O)c1-c1ccc2c(c1)CCN(C)CC2 [Example 27, 3-(2,4-dihydroxyl-5-isopropylphenyl)-N-ethyl-4-(3-methyl-2,3,4,5-tetrahydro-1H-benzo[d]azepin-7-yl)isoxazole-5-carboxamide] | – | < 20 | < 20

From patent US10035792B2, “Resorcinol derivative as HSP90 inhibitor” (priority 2015, dated 2018)
